{"source": "patent US6358885B1", "about": "“Substituted phenylheterocyclic herbicides” (Mississippi State University, priority 1992, dated 2002)", "assay_in_all_cases": "Test B preemergence/postemergence greenhouse plant response rating 0 to 10", "settings_in_all_cases": "0 to 10 scale", "key": {"sorghum": {"tested_on": "sorghum", "type": "in vivo, Sorghum bicolor", "outline": "(§1)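 Test chemicals, dissolved in a non-phytotoxic solvent, were applied to soil at planting and, at the same time, over foliage of seedlings at the one to four leaf stage.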"}, "cotton": {"tested_on": "cotton", "type": "in vivo, Gossypium hirsutum", "outline": "as §1"}, "corn": {"tested_on": "corn", "type": "in vivo, Zea mays", "outline": "as §1"}, "bedstraw": {"tested_on": "bedstraw", "type": "in vivo, Galium aparine", "outline": "as §1"}, "velvetleaf": {"tested_on": "velvetleaf", "type": "in vivo, Abutilon theophrasti", "outline": "as §1"}, "rice": {"tested_on": "rice", "type": "in vivo, Oryza sativa", "outline": "as §1"}, "cheatgrass": {"tested_on": "cheatgrass", "type": "in vivo, Bromus secalinus", "outline": "as §1"}, "rape": {"tested_on": "rape", "type": "in vivo, Brassica napus", "outline": "as §1"}, "chickweed": {"tested_on": "chickweed", "type": "in vivo, Stellaria media", "outline": "as §1"}, "barnyardgrass": {"tested_on": "barnyardgrass", "type": "in vivo, Echinochloa crus-galli", "outline": "as §1"}, "crabgrass": {"tested_on": "crabgrass", "type": "in vivo, Digitaria spp.", "outline": "as §1"}, "purple nutsedge": {"tested_on": "purple nutsedge", "type": "in vivo, Cyperus rotundus", "outline": "as §1"}, "wheat": {"tested_on": "wheat", "type": "in vivo, Triticum aestivum", "outline": "as §1"}, "barley": {"tested_on": "barley", "type": "in vivo, Hordeum vulgare", "outline": "as §1"}, "morningglory": {"tested_on": "morningglory", "type": "in vivo, Ipomoea hederacea", "outline": "as §1"}, "blackgrass": {"tested_on": "blackgrass", "type": "in vivo, Alopecurus myosuroides", "outline": "as §1"}, "wild buckwheat": {"tested_on": "wild buckwheat", "type": "in vivo, Polygonum convolvulus", "outline": "as §1"}, "giant foxtail": {"tested_on": "giant foxtail", "type": "in vivo, Setaria faberii", "outline": "as §1"}, "sugar beet": {"tested_on": "sugar beet", "type": "in vivo, Beta vulgaris", "outline": "as §1"}, "soybean": {"tested_on": "soybean", "type": "in vivo, Glycine max", "outline": "as §1"}, "cocklebur": {"tested_on": "cocklebur", "type": "in vivo, Xanthium pensylvanicum", "outline": "as §1"}, "lambsquarters": {"tested_on": "lambsquarters", "type": "in vivo, Chenopodium album", "outline": "as §1"}, "wild oat": {"tested_on": "wild oat", "type": "in vivo, Avena fatua", "outline": "as §1"}}}
{"smiles": "C#CCOC(=O)COc1cc(-c2nn3c(c2Cl)CCCC3)c(F)cc1Cl", "note": "[Compound 61]", "values": [{"measurement": "Plant response rating, Sorghum", "setting": "sorghum; POSTEMERGENCE, Rate 10 g/ha", "value": 2}, {"measurement": "Plant response rating, Sorghum", "setting": "sorghum; POSTEMERGENCE, Rate 50 g/ha", "value": 3}, {"measurement": "Plant response rating, Sorghum", "setting": "sorghum; PREEMERGENCE, Rate 50 g/ha", "value": 0}, {"measurement": "Plant response rating, Cotton", "setting": "cotton; POSTEMERGENCE, Rate 10 g/ha", "value": 9}, {"measurement": "Plant response rating, Cotton", "setting": "cotton; POSTEMERGENCE, Rate 50 g/ha", "value": 10}, {"measurement": "Plant response rating, Cotton", "setting": "cotton; PREEMERGENCE, Rate 10 g/ha", "value": 0}, {"measurement": "Plant response rating, Cotton", "setting": "cotton; PREEMERGENCE, Rate 50 g/ha", "value": 0}, {"measurement": "Plant response rating, Corn", "setting": "corn; POSTEMERGENCE, Rate 10 g/ha", "value": 3}, {"measurement": "Plant response rating, Corn", "setting": "corn; POSTEMERGENCE, Rate 50 g/ha", "value": 5}, {"measurement": "Plant response rating, Corn", "setting": "corn; PREEMERGENCE, Rate 50 g/ha", "value": 0}, {"measurement": "Plant response rating, Bedstraw", "setting": "bedstraw; POSTEMERGENCE, Rate 10 g/ha", "value": 5}, {"measurement": "Plant response rating, Bedstraw", "setting": "bedstraw; POSTEMERGENCE, Rate 50 g/ha", "value": 9}, {"measurement": "Plant response rating, Bedstraw", "setting": "bedstraw; PREEMERGENCE, Rate 10 g/ha", "value": 0}, {"measurement": "Plant response rating, Bedstraw", "setting": "bedstraw; PREEMERGENCE, Rate 50 g/ha", "value": 5}, {"measurement": "Plant response rating, Velvetleaf", "setting": "velvetleaf; POSTEMERGENCE, Rate 10 g/ha", "value": 2}, {"measurement": "Plant response rating, Velvetleaf", "setting": "velvetleaf; POSTEMERGENCE, Rate 50 g/ha", "value": 10}, {"measurement": "Plant response rating, Velvetleaf", "setting": "velvetleaf; PREEMERGENCE, Rate 50 g/ha", "value": 10}, {"measurement": "Plant response rating, Rice", "setting": "rice; POSTEMERGENCE, Rate 10 g/ha", "value": 2}, {"measurement": "Plant response rating, Rice", "setting": "rice; POSTEMERGENCE, Rate 50 g/ha", "value": 4}, {"measurement": "Plant response rating, Rice", "setting": "rice; PREEMERGENCE, Rate 50 g/ha", "value": 0}, {"measurement": "Plant response rating, Cheatgrass", "setting": "cheatgrass; POSTEMERGENCE, Rate 10 g/ha", "value": 2}, {"measurement": "Plant response rating, Cheatgrass", "setting": "cheatgrass; POSTEMERGENCE, Rate 50 g/ha", "value": 3}, {"measurement": "Plant response rating, Cheatgrass", "setting": "cheatgrass; PREEMERGENCE, Rate 10 g/ha", "value": 0}, {"measurement": "Plant response rating, Cheatgrass", "setting": "cheatgrass; PREEMERGENCE, Rate 50 g/ha", "value": 2}, {"measurement": "Plant response rating, Rape", "setting": "rape; POSTEMERGENCE, Rate 10 g/ha", "value": 1}, {"measurement": "Plant response rating, Rape", "setting": "rape; POSTEMERGENCE, Rate 50 g/ha", "value": 8}, {"measurement": "Plant response rating, Rape", "setting": "rape; PREEMERGENCE, Rate 50 g/ha", "value": 4}, {"measurement": "Plant response rating, Chickweed", "setting": "chickweed; POSTEMERGENCE, Rate 10 g/ha", "value": 2}, {"measurement": "Plant response rating, Chickweed", "setting": "chickweed; POSTEMERGENCE, Rate 50 g/ha", "value": 2}, {"measurement": "Plant response rating, Chickweed", "setting": "chickweed; PREEMERGENCE, Rate 50 g/ha", "value": 3}, {"measurement": "Plant response rating, Barnyardgrass", "setting": "barnyardgrass; POSTEMERGENCE, Rate 10 g/ha", "value": 2}, {"measurement": "Plant response rating, Barnyardgrass", "setting": "barnyardgrass; POSTEMERGENCE, Rate 50 g/ha", "value": 2}, {"measurement": "Plant response rating, Barnyardgrass", "setting": "barnyardgrass; PREEMERGENCE, Rate 10 g/ha", "value": 0}, {"measurement": "Plant response rating, Barnyardgrass", "setting": "barnyardgrass; PREEMERGENCE, Rate 50 g/ha", "value": 0}, {"measurement": "Plant response rating, Crabgrass", "setting": "crabgrass; POSTEMERGENCE, Rate 10 g/ha", "value": 2}, {"measurement": "Plant response rating, Crabgrass", "setting": "crabgrass; POSTEMERGENCE, Rate 50 g/ha", "value": 2}, {"measurement": "Plant response rating, Crabgrass", "setting": "crabgrass; PREEMERGENCE, Rate 10 g/ha", "value": 0}, {"measurement": "Plant response rating, Crabgrass", "setting": "crabgrass; PREEMERGENCE, Rate 50 g/ha", "value": 0}, {"measurement": "Plant response rating, Nutsedge", "setting": "purple nutsedge; POSTEMERGENCE, Rate 10 g/ha", "value": 0}, {"measurement": "Plant response rating, Nutsedge", "setting": "purple nutsedge; POSTEMERGENCE, Rate 50 g/ha", "value": 2}, {"measurement": "Plant response rating, Nutsedge", "setting": "purple nutsedge; PREEMERGENCE, Rate 50 g/ha", "value": 10}, {"measurement": "Plant response rating, Wheat", "setting": "wheat; POSTEMERGENCE, Rate 10 g/ha", "value": 2}, {"measurement": "Plant response rating, Wheat", "setting": "wheat; POSTEMERGENCE, Rate 50 g/ha", "value": 3}, {"measurement": "Plant response rating, Wheat", "setting": "wheat; PREEMERGENCE, Rate 50 g/ha", "value": 0}, {"measurement": "Plant response rating, Barley", "setting": "barley; POSTEMERGENCE, Rate 10 g/ha", "value": 1}, {"measurement": "Plant response rating, Barley", "setting": "barley; POSTEMERGENCE, Rate 50 g/ha", "value": 2}, {"measurement": "Plant response rating, Barley", "setting": "barley; PREEMERGENCE, Rate 10 g/ha", "value": 0}, {"measurement": "Plant response rating, Barley", "setting": "barley; PREEMERGENCE, Rate 50 g/ha", "value": 0}, {"measurement": "Plant response rating, Morningglory", "setting": "morningglory; POSTEMERGENCE, Rate 10 g/ha", "value": 7}, {"measurement": "Plant response rating, Morningglory", "setting": "morningglory; POSTEMERGENCE, Rate 50 g/ha", "value": 10}, {"measurement": "Plant response rating, Morningglory", "setting": "morningglory; PREEMERGENCE, Rate 50 g/ha", "value": 3}, {"measurement": "Plant response rating, Blackgrass", "setting": "blackgrass; POSTEMERGENCE, Rate 10 g/ha", "value": 2}, {"measurement": "Plant response rating, Blackgrass", "setting": "blackgrass; POSTEMERGENCE, Rate 50 g/ha", "value": 3}, {"measurement": "Plant response rating, Blackgrass", "setting": "blackgrass; PREEMERGENCE, Rate 10 g/ha", "value": 0}, {"measurement": "Plant response rating, Blackgrass", "setting": "blackgrass; PREEMERGENCE, Rate 50 g/ha", "value": 2}, {"measurement": "Plant response rating, Wild buckwheat", "setting": "wild buckwheat; POSTEMERGENCE, Rate 10 g/ha", "value": 3}, {"measurement": "Plant response rating, Wild buckwheat", "setting": "wild buckwheat; POSTEMERGENCE, Rate 50 g/ha", "value": 9}, {"measurement": "Plant response rating, Wild buckwheat", "setting": "wild buckwheat; PREEMERGENCE, Rate 50 g/ha", "value": 0}, {"measurement": "Plant response rating, Giant foxtail", "setting": "giant foxtail; POSTEMERGENCE, Rate 10 g/ha", "value": 2}, {"measurement": "Plant response rating, Giant foxtail", "setting": "giant foxtail; POSTEMERGENCE, Rate 50 g/ha", "value": 2}, {"measurement": "Plant response rating, Giant foxtail", "setting": "giant foxtail; PREEMERGENCE, Rate 10 g/ha", "value": 0}, {"measurement": "Plant response rating, Giant foxtail", "setting": "giant foxtail; PREEMERGENCE, Rate 50 g/ha", "value": 0}, {"measurement": "Plant response rating, Sugar beet", "setting": "sugar beet; POSTEMERGENCE, Rate 10 g/ha", "value": 10}, {"measurement": "Plant response rating, Sugar beet", "setting": "sugar beet; POSTEMERGENCE, Rate 50 g/ha", "value": 10}, {"measurement": "Plant response rating, Sugar beet", "setting": "sugar beet; PREEMERGENCE, Rate 50 g/ha", "value": 10}, {"measurement": "Plant response rating, Soybean", "setting": "soybean; POSTEMERGENCE, Rate 10 g/ha", "value": 2}, {"measurement": "Plant response rating, Soybean", "setting": "soybean; POSTEMERGENCE, Rate 50 g/ha", "value": 3}, {"measurement": "Plant response rating, Soybean", "setting": "soybean; PREEMERGENCE, Rate 50 g/ha", "value": 0}, {"measurement": "Plant response rating, Cocklebur", "setting": "cocklebur; POSTEMERGENCE, Rate 10 g/ha", "value": 4}, {"measurement": "Plant response rating, Cocklebur", "setting": "cocklebur; POSTEMERGENCE, Rate 50 g/ha", "value": 8}, {"measurement": "Plant response rating, Cocklebur", "setting": "cocklebur; PREEMERGENCE, Rate 10 g/ha", "value": 0}, {"measurement": "Plant response rating, Cocklebur", "setting": "cocklebur; PREEMERGENCE, Rate 50 g/ha", "value": 0}, {"measurement": "Plant response rating, Lambsquarter", "setting": "lambsquarters; POSTEMERGENCE, Rate 10 g/ha", "value": 9}, {"measurement": "Plant response rating, Lambsquarter", "setting": "lambsquarters; POSTEMERGENCE, Rate 50 g/ha", "value": 9}, {"measurement": "Plant response rating, Lambsquarter", "setting": "lambsquarters; PREEMERGENCE, Rate 50 g/ha", "value": 9}, {"measurement": "Plant response rating, Wild oat", "setting": "wild oat; POSTEMERGENCE, Rate 10 g/ha", "value": 1}, {"measurement": "Plant response rating, Wild oat", "setting": "wild oat; POSTEMERGENCE, Rate 50 g/ha", "value": 2}, {"measurement": "Plant response rating, Wild oat", "setting": "wild oat; PREEMERGENCE, Rate 50 g/ha", "value": 2}]}
